This note sets out measurements from DBAASP.

For orientation: MIC means the lowest concentration found to suppress growth. Low readings indicate greater potency, high ones weaker potency.

Test systems include Escherichia coli O157:H7; Candida albicans 3153A; Serratia rubidaea X01; Escherichia coli; Pseudomonas haemolytica; Micrococcus luteus.
Test in all cases: ≥ marks a high value that may be exact or a test limit, other limits are often not marked, values filed in µg/mL are converted to µM
Assay [1] relates to Staphylococcus aureus 1056.
Assay [2] concerns Staphylococcus carnosus KHS.
Assay [3] concerns Escherichia coli ATCC 25922.
Assay [4] deals with Psychrobacter faecalis X29.
The subject of assay [5] is Enterococcus faecalis 981.
For assay [6], the system named is Rhodococcus rhodochrous X15.
Assay [7] has as its system Staphylococcus aureus ATCC 25923.
Assay [8] deals with Candida albicans ATCC 10231.
The test system of assay [9] is Bacillus licheniformis X39.
The test system of assay [10] is Carnobacterium maltaromaticum UI49.
Assay [11] relates to Latilactobacillus sakei NCDO 2714.
The subject of assay [12] is Lactiplantibacillus plantarum UI50.
Assay [13] has as its system Lacticaseibacillus casei NCDO 2713.
In assay [14] the test system is Latilactobacillus curvatus 89.
For assay [15], the system named is Pediococcus pentosaceus Pac1.0.
Assay [16] has as its system Pediococcus acidilactici CH.
Assay [17] relates to Lacticaseibacillus casei subsp. casei NCDO 161.
Assay [18] deals with Latilactobacillus sakei 706.
Assay [19] has as its system Weissella viridescens NCDO 1655.
Assay [20] has as its system Pediococcus pentosaceus NCDO 990.
Assay [21] relates to Pseudomonas aeruginosa 1.50.
The subject of assay [22] is Staphylococcus aureus ATCC 2592.

In brackets after ≈: the same amount, converted by molar mass. Where only a bound is given, the exact number is not on record here.

For the compound `CC[C@H](C)[C@H](NC(=O)[C@H](CC(N)=O)NC(=O)[C@H](CCCCN)NC(=O)[C@@H]1CSSC[C@@H]2NC(=O)[C@H](CCCCN)NC(=O)[C@H](CC(C)C)NC(=O)[C@H](Cc3ccccc3)NC(=O)CNC(=O)[C@@H]3CSSC[C@H](NC(=O)[C@H](CCCCN)NC(=O)CNC(=O)[C@H](CO)NC(=O)[C@H](C(C)C)NC(=O)[C@H](C(C)C)NC(=O)[C@H](Cc4ccccc4)NC(=O)[C@@H]4CCCN4C(=O)[C@H](Cc4ccccc4)NC(=O)[C@H](CO)NC2=O)C(=O)N[C@@H](CO)C(=O)N[C@@H](CCCN=C(N)N)C(=O)N[C@@H](Cc2ccccc2)C(=O)N[C@@H](Cc2ccccc2)C(=O)N[C@@H](Cc2ccccc2)C(=O)N[C@@H](CSSC[C@H](NC(=O)[C@H](CCC(=O)O)NC(=O)[C@H](C)NC(=O)[C@H](CCCCN)NC(=O)[C@H](CC(N)=O)NC(=O)CNC(=O)[C@@H]2CCCN2C(=O)[C@H](C)N)C(=O)N[C@@H](CCC(=O)O)C(=O)N[C@@H](CCCN=C(N)N)C(=O)N[C@@H](CCC(=O)O)C(=O)N[C@@H](CCCCN)C(=O)NCC(=O)N[C@@H](Cc2ccc(O)cc2)C(=O)N3)C(=O)N1)C(=O)N[C@@H](Cc1c[nH]c2ccccc12)C(=O)O` [APGNKAECEREKGYCGFLKCSFPFVVSGKCSRFFFCCKNIW], the minimum inhibitory concentration (MIC) in the assay with Escherichia coli O157:H7 stood at 0.205 µM (≈ 0.959 µg/mL); in assay [1], 0.267 µM (≈ 1.25 µg/mL); in the assay on Candida albicans 3153A it was 1.32 µM (≈ 6.19 µg/mL).
Turning to `CC[C@H](C)[C@H](NC(=O)[C@H](CCCCN)NC(=O)[C@@H]1CCCN1C(=O)[C@H](CC(C)C)NC(=O)[C@H](Cc1ccccc1)NC(=O)[C@H](CC(N)=O)NC(=O)[C@H](C)NC(=O)[C@H](C)NC(=O)[C@H](CC(C)C)NC(=O)CNC(=O)[C@H](C)NC(=O)[C@@H](NC(=O)[C@@H](NC(=O)[C@@H]1CCCN1C(=O)[C@H](CC(C)C)NC(=O)[C@@H](N)Cc1ccccc1)[C@@H](C)CC)C(C)C)C(=O)N[C@H](C(=O)N[C@H]1CSSC[C@@H](C(=O)O)NC(=O)[C@H](CCCCN)NC(=O)[C@H](CCCCN)NC(=O)[C@H]([C@@H](C)O)NC(=O)[C@H]([C@@H](C)CC)NC(=O)[C@H](CCCCN)NC1=O)C(C)C` [FLPIVAGLAANFLPKIVCKITKKC], the minimal inhibitory concentration (MIC) in [2] is 9 µM (≈ 23.3 µg/mL); in assay [3], 150 µM (≈ 388 µg/mL); with Serratia rubidaea X01 it was 19 µM (≈ 49.1 µg/mL); in [4] it was 19 µM (≈ 49.1 µg/mL); in [5], 19 µM (≈ 49.1 µg/mL); in assay [6], 1.2 µM (≈ 3.1 µg/mL). The values for the MIC in assay [7], in [8] and in assay [9] were 9 µM (≈ 23.3 µg/mL), 150 µM (≈ 388 µg/mL) and 9 µM (≈ 23.3 µg/mL), respectively.
For the compound `CC[C@H](C)[C@H](NC(=O)[C@H](C)NC(=O)[C@H](CCCNC(=N)N)NC(=O)CNC(=O)[C@H](C)NC(=O)[C@H](CCC(=O)O)NC(=O)CNC(=O)[C@H](CC(=O)O)NC(=O)[C@H](Cc1ccc(O)cc1)NC(=O)[C@H](Cc1ccccc1)NC(=O)CNC(=O)[C@H](CCCCN)NC(=O)[C@H](CCCNC(=N)N)NC(=O)[C@H](CC(C)C)NC(=O)[C@H](CO)NC(=O)[C@H](CO)NC(=O)[C@H](Cc1c[nH]c2ccccc12)NC(=O)[C@H](Cc1ccccc1)NC(=O)[C@H](CC(N)=O)NC(=O)[C@H](CCCCN)NC(=O)[C@H](Cc1c[nH]c2ccccc12)NC(=O)[C@H](C)NC(=O)CN)C(=O)N[C@@H](CCCNC(=N)N)C(=O)N[C@@H](CCCNC(=N)N)C(=O)O` [GAWKNFWSSLRKGFYDGEAGRAIRR], the MIC in assay [10] came out at 0.4 µM (≈ 1.17 µg/mL); in assay [11] it was 0.05 µM (≈ 0.146 µg/mL); in assay [12], 0.4 µM (≈ 1.17 µg/mL); in assay [13], 0.4 µM (≈ 1.17 µg/mL); in assay [14], 0.4 µM (≈ 1.17 µg/mL); in [15] it was 0.05 µM (≈ 0.146 µg/mL). The minimum inhibitory concentration (MIC) in assay [16] came out at 0.4 µM (≈ 1.17 µg/mL); in [17], 0.4 µM (≈ 1.17 µg/mL); in assay [18], 0.4 µM (≈ 1.17 µg/mL); in assay [19], 0.005 µM (≈ 0.0146 µg/mL); in assay [20], 0.4 µM (≈ 1.17 µg/mL).
For the compound `CC[C@H](C)[C@H](NC(=O)CNC(=O)[C@H](CO)NC(=O)[C@H](C)NC(=O)[C@H](CC(C)C)NC(=O)[C@H](CC(=O)O)NC(=O)CNC(=O)[C@H](C)NC(=O)[C@H](C)NC(=O)[C@H](CO)NC(=O)[C@H](CCCCN)NC(=O)[C@@H](NC(=O)[C@H](CCCCN)NC(=O)[C@H](CCC(N)=O)NC(=O)[C@H](Cc1c[nH]c2ccccc12)NC(=O)[C@H](CC(C)C)NC(=O)CN)[C@@H](C)CC)C(=O)N[C@H](C(=O)N[C@@H](CCC(=O)O)C(=O)N[C@@H](C)C(=O)N[C@H](C(=O)N[C@@H](CCCCN)C(=O)N[C@@H](CO)C(N)=O)[C@@H](C)CC)C(C)C` [GLWQKIKSAAGDLASGIVEAIKS], the figures for the MIC against Escherichia coli, with Pseudomonas haemolytica and in the assay on Micrococcus luteus were 21.3 µM (≈ 50 µg/mL), 0.171 µM (≈ 0.4 µg/mL) and 2.56 µM (≈ 6 µg/mL), respectively.
`CC[C@H](C)[C@H](NC(=O)CNC(=O)[C@@H](NC(=O)CNC(=O)[C@H](C)NC(=O)CNC(=O)[C@H](CCCN=C(N)N)NC(=O)[C@H](C)NC(=O)[C@@H](NC(=O)CNC(=O)[C@H](CC(C)C)NC(=O)[C@H](C)NC(=O)[C@@H](NC(=O)[C@H](CC(N)=O)NC(=O)[C@H](CCCCN)NC(=O)[C@@H](NC(=O)[C@H](CCCCN)NC(=O)[C@H](CC(=O)O)NC(=O)[C@H](CC(C)C)NC(=O)[C@@H](NC(=O)[C@@H](N)CO)[C@@H](C)CC)[C@@H](C)CC)C(C)C)C(C)C)[C@@H](C)O)C(=O)N[C@@H](CC(C)C)C(=O)N[C@@H](CCCCN)C(=O)N[C@@H](C)C(=O)N[C@@H](CC(C)C)C(=O)N[C@@H](CC(C)C)C(=O)N[C@H]1CSSC[C@@H](C(=O)O)NC(=O)[C@H](CO)NC(=O)[C@H](CCCCN)NC(=O)[C@H](CC(=O)O)NC(=O)[C@H](CC(C)C)NC(=O)[C@H](CCCCN)NC1=O` [SILDKIKNVALGVARGAGTGILKALLCKLDKSC]: the MIC in [2] is 1.9 µM (≈ 6.4 µg/mL); in assay [3], 30 µM (≈ 101 µg/mL); in the assay with Serratia rubidaea X01, no less than 60 µM; in assay [4], 1.9 µM (≈ 6.4 µg/mL); in assay [6] it was 1.9 µM (≈ 6.4 µg/mL); in [21] it was 30 µM (≈ 101 µg/mL). Moreover, the MIC in [22] and in assay [9] was 3.8 µM (≈ 12.8 µg/mL) in each case.
